Where a name gives a salt, the structure may show the parent alone.
What was measured:
HCT-116 cells [1] = assay: Membrane integrity by LDH assay; type: cell-based, human; settings: 48 hours, 0.1% Triton X-100 = 100%
Method: (§1) Membrane integrity was assessed using the LDH based in vitro toxicology kit obtained from Sigma-Aldrich. The assay was conducted following the manufacturer's protocol. HCT-116 and HT-29 cells were cultured in a 96-well plate at a density of 10,000 cells per well. After 24 hours of seeding, the cells were treated with IS at concentrations of 1.25 mM, 5 mM, and 10 mM. Following a 48-hour treatment period, the cells were centrifuged, and 100 μl of supernatant was collected into a fresh 96-well plate to measure the amount of LDH released into the media by necrotic cells. Subsequently, 100 μl of the dosing reagent was added and incubated for 30 minutes at 37° C. After incubation, 20 μl of […] stop solution was added. Absorbance was measured at 690 nm and 490 nm using a ClarioStar plate reader (BMG Labtech, Ortenberg, Germany). The background absorbance at 690 nm was subtracted from the 490 nm absorbance. For the positive control, 0.1% Triton X-100 was used and considered as maximum LDH release. Untreated cells served as the negative control. The membrane integrity of IS-exposed cells was compared to that of untreated cells. The following formula was used to calculate the LDH release from the cells: Experimental LDH release (OD490)×100/maximum LDH release (OD490).

HT-29 cells [2] = assay: Membrane integrity by LDH assay; type: cell-based, human; settings: 48 hours, 0.1% Triton X-100 = 100%
Method: as §1

HCT-116 cells [3] = assay: Clonogenic (colony forming) assay; type: cell-based, human; settings: HCT-116, 1.25-10 mM for 48 hours, 10 days colony growth
Method: (§2) To assess the colony-forming ability of cells after treatment with IS, a colony forming assay was performed. HCT-116 and HT-29 cells were cultured in 6-well plates at a density of 2×10^5 cells per well. After 24 hours of seeding, the cells were exposed to IS at concentrations of 1.25 mM, 5 mM, and 10 mM. Following a 48-hour treatment period, the cells were harvested using trypsin and counted for each treatment. From each treatment group, 400, 800, and 1200 cells were plated and incubated for 10 days in 6-well plates. During the incubation period, the media were replenished every alternate day. After 10 days, the colonies were washed with PBS and stained with 0.5% crystalline violet. The cells were then fixed with 6% glutaraldehyde. The colonies were visualized and counted using ImageJ software. The clonogenic efficiency of the treated cells was compared to that of the untreated cells.

HT-29 cells [4] = assay: Clonogenic (colony forming) assay; type: cell-based, human; settings: HT-29, 1.25-10 mM for 48 hours, 10 days colony growth
Method: as §2

[5] = test system: human adenocarcinoma cells; assay: Comet assay (DNA damage); type: cell-based; settings: cell lysate after IS treatment
Method: In the in vitro study, cells were exposed to various doses of indoxyl sulfate ranging from 0.038 mM to 10 mM for three different incubation periods (24 hours, 48 hours, and 72 hours). A decrease in cell proliferation efficiency was observed after 48 hours of treatment, with the most significant effects observed at concentrations of 5 mM and 10 mM of indoxyl sulfate. […] Decrease in cellular ATP content indicates the diminished cellular metabolic activity and may be linked with cell death. Considering these findings. the apoptotic effect of indoxyl sulfate was examined. […] Another study on the osteoblast cell line MC3T3-E1 also confirmed that IS acts as a bone toxin by inducing cell apoptosis and inhibiting differentiation. […] To account for this study. cells were also assessed for oxidative stress in this invention by staining them with […] (DHE) after 48 hours of treatment. […] The potential for IS to cause DNA damage was also investigated.

[6] = test system: inflammatory cytokines IL-17A, IL-1β and TNF-α; assay: Cytokine study (ELISA of blood samples); type: in vivo, mice; settings: IP and IR, zero, 1 month, 2 month
Method: Each group consisted of six mice. […] For the cytokine study, blood samples were collected from the mice. The cytokines of interest, IL-1β, TNF-α, and IL-17A, were analyzed in all groups at three different time points: baseline (time point zero), one month, and two months. The analysis was performed using an ELISA kit from R&D Systems. The experimental procedure for cytokine study followed the instructions provided with the kit. In summary, each well of the ELISA plate was coated with a specific monoclonal antibody against the respective cytokines. Then, 50 ul of standard, control, and sample were added to the appropriate wells. The plate was incubated at room temperature (RT) for 2 hours. After incubation, each well was washed four times with 400 ul of buffer to remove any unbound substances. Subsequently, 100 ul of the secondary antibody conjugate was added to each well and incubated at RT for another 2 hours. Following the second incubation, the wells were washed four times, and 100 ul of substrate solution was added. The plate was then incubated for 30 minutes at RT in the dark. After incubation, 100 ul of stop solution was added to each well to halt the enzymatic reaction. The optical density (OD) of the samples was measured at wavelengths of 450 nm and 570 nm within 30 minutes of adding the stop solution. To obtain the final readings, the absorbance at 570 nm was subtracted from the absorbance at 450 nm.

With `O=S(=O)(O)Oc1c[nH]c2ccccc12` [IS, Indoxyl Sulfate] the “LDH release in the supernatant” value (HCT-116 cells [1]; HCT-116, 5 mM) was 80%, the “LDH release in the supernatant” value (HCT-116 cells [1]; HCT-116, 10 mM) was 86% and the “LDH release in the supernatant” value (HT-29 cells [2]; HT-29, 5 mM) was 82%. For the same compound, the “LDH release in the supernatant” value (HT-29 cells [2]; HT-29, 10 mM) was 85%, the “number of colonies formed compared to control” value (HCT-116 cells [3]) was “significant reduction in the number of colonies formed” and the “number of colonies formed compared to control” value (HT-29 cells [4]) was “significant reduction in the number of colonies formed”. The “DNA damage (comet formation)” value [5] was “does not show formation of any comet”, the “level of IL-1β vs control groups” value [6] was “no significant differences” and the “level of IL-17A vs control groups” value [6] was “no significant differences”. The “level of TNF-α vs control groups” value [6] was “no significant differences”.

Reference: patent publication US20250195468A1, “METHODS AND COMPOSITIONS FOR TREATING COLORECTAL CANCER WITH INDOXYL SULFATE” (National Institute of Immunology, priority 2023, published 2025)
